# Assay results reported in US20120101284A1, “METHOD FOR SCREENING INHIBITOR FOR INHIBITING INTERACTION BETWEEN BETA-AMYLOID PEPTIDE AND VEGF AND INHIBITOR SEARCHED BY THE SAME” (INNOPHARMASCREEN INC., priority 2009, published 2012).
# What was measured:
# [1] = biological target: T1, binding between the beta-amyloid 1-42 peptide and VEGF165 (Homo sapiens, UniProt P15692); experiment: Protein chip screening of inhibitors of the binding between beta-amyloid and VEGF165; settings: first screening, VEGF165 50 μg/ml, single concentration
# T1 construct: purchased R&D System, Inc. (VEGF165); Bachem AG (beta-amyloid)
# T1 sequence (P15692 27-191 isoform P15692-4): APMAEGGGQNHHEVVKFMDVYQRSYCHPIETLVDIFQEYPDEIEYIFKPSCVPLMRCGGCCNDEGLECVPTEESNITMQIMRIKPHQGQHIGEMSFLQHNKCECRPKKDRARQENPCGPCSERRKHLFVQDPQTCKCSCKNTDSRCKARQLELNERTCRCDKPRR
# Procedure: ProteoChip™ (Proteogen Inc., Seoul, Korea) was used as a substrate to fix a protein. A sheet paper was adhered on the substrate to prepare Well-Chip. A beta-amyloid (Bachem AG, Bubendorf, Switzerland) was diluted with a phosphate-buffered saline (PBS) containing 30% glycerol solution to be 50 μg/ml; then added to each well; reacted at 30° C. in a humidity incubator, overnight; the beta-amyloid remained after combining was washed with a phosphate-buffered saline containing 0.05% tween-20 (0.05% PBST); dried with a nitrogen gas; and then a high-speed-high throughput screening was performed.
# A mixed solution was prepared by mixing VEGF165 (50 μg/ml) and 130 compounds (50 μM) derived from a natural material obtained in Example 1 in order to experiment the inhibition of the binding between the beta-amyloid and VEGF165. […]
# The beta-amyloid-tagged protein chip prepared in Example 2 was blocked with 3% BSA for 2 hours; then washed with 0.05% PBST twice; and then dried with a nitrogen gas. […] It was washed with the washing solution; then dried using a nitrogen gas; a primary antibody was added to each of wells; then reacted at 30° C. in a humidity incubator for 30 minutes; washed with the washing solution; and then dried with the nitrogen gas to measure an inhibition ability of library by analyzing the binding degree with the relative fluorescence intensity using a fluorescence laser scanner. […]
# [2] = system: SH-SY5Y cell; experiment: Inhibition of cytotoxicity of beta-amyloid by screened material (MTT assay); format: cell-based; settings: standard of 10 μM beta-amyloid, at more than 5 μM, 24 hours
# Procedure: The SH-SY5Y cells were added to 96-well tissue culture plate to be the cell concentration of 1×10^4 per well.
# [3] = system: SH-SY5Y cell
# Source text: PC12 Cell (Korean Cell Line Bank, Seoul, Korea) was maintained in the mixed solution of RPMI1640 (Welgene, Daegu, Korea) containing 1× Antibiotic-Antimycotic (GIBCO, N.Y., USA) and 10% FBS (Fetal Bovine Serum) (Welgene, Daegu, Korea). SH-SY5Y cell (Korean Cell Line Bank, Seoul, Korea) was maintained in the mixed solution of DMED/F12 (Welgene, Daegu, Korea) containing 1× Antibiotic-Antimycotic (GIBCO, N.Y., USA) and 10% FBS (Fetal Bovine Serum) (Welgene, Daegu, Korea). The PC12 and SH-SY5Y culture cells were maintained under the conditions of 100% humidity and 37° C. in the environment for supplying gas components with further 5% carbon dioxide.
# It was performed according to a MTT [(3-(4,5-dimethylthiazol-2yl-2,5-diphenyl-2H-tetrazoilum bromide] experiment protocol. MTT was dissolved in PBS to be 5 mg/ml and then stored at 4° C. to use. After completing the reaction, 10 μl of 5 mg/ml MTT solution was added to 100 culture mixed solution of each well and then reacted for 3 hours. The supernatant of each well was discarded, and then a chromophoric reactant (Formazancrystal) was dissolved in 100 μl of DMSO; and then an absorbance was measured using ELISA reader (595 nm).
# The PC12 cells were added to each of wells of Poly-D-lysine-coated 96-well tissue culture plate (Corning, Mass., USA) to be the cell concentration of 2×10^4 per well. […]
compound,measurement,setting,value
heparin,inhibition of the interaction between beta-amyloid 1-42 peptide and VEGF165 (relative fluorescence intensity),[1],inhibited
NCCCS(=O)(=O)O [Alzhemed™],survival rate of cell increased,[2],about 30%
beta-amyloid 1-42: forward-synthesized beta-amyloid 1-42 peptide,survival rate of cell,[3],decreased in proportion as the concentration increase
